Measurements as given in ChEMBL document CHEMBL4118173, “Discovery of benzimidazole derivatives as orally active renin inhibitors: Optimization of 3,5-disubstituted piperidine to improve pharmacokinetic profile” (Bioorg Med Chem, 2018).
Substitutions are numbered along the chain they refer to. The source made the active and inactive calls. The calls are words filed in the database; no cut-off is given here.

What was measured:
Renin [1] = target: T1, Renin (Homo sapiens, UniProt P00797)
T1 sequence (P00797 whole entry): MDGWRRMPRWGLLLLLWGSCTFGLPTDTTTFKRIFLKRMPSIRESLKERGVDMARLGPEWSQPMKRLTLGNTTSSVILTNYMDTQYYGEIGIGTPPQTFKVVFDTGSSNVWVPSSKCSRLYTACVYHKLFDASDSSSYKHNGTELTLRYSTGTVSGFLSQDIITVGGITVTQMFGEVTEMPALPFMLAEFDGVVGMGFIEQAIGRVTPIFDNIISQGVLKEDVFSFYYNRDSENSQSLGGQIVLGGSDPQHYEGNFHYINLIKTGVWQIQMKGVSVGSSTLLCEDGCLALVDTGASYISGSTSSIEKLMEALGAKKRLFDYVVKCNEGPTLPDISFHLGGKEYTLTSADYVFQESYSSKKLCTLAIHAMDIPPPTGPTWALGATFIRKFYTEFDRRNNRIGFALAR
Description: Inhibition of renin in human plasma by radioimmunoassay

in vivo [2] = conditions: rat, iv
Description: Clearance in rat at 0.1 mg/kg, iv or 1 mg/kg, po administered as cassette dose by LC-MS/MS analysis

Renin [3] = target: T1, Renin; remark: listed apart in the source
Description: Inhibition of recombinant human renin using angiotensinogen as substrate pretreated for 10 mins followed by substrate addition measured after 30 mins in absence of human serum albumin by ELISA

in vivo [4] = conditions: rat, iv, 0.1 mg/kg
physchem = conditions: 1-octanol/aqueous buffer, pH 7.4
Description: 1-octanol/aqueous buffer partition coefficient, log D of the compound at pH 7.4 by UV-vis/HPLC method

in vivo [5] = conditions: rat, po, 1 mg/kg
in vivo [6] = conditions: rat, po, 1 mg/kg; remark: listed apart in the source
Renin [7] = target: T1, Renin; remark: listed apart in the source
Description: Inhibition of recombinant human renin using angiotensinogen as substrate pretreated for 10 mins followed by substrate addition measured after 30 mins in presence of human serum albumin by ELISA

in vitro = conditions: PAMPA, pH 7.4
Description: Permeability of the compound at pH 7.4 buffer after 3 hrs by PAMPA

Rattus norvegicus [8] = experiment: Metabolic stability in rat at 0.1 mg/kg, iv or 1 mg/kg, po administered as cassette dose by LC-MS/MS analysis; type: ADME, organism-based; conditions: in vivo
[9] = AUC in cynomolgus monkey at 0.1 mg/kg, iv administered as cassette dose by LC-MS/MS analysis; type: ADME, organism-based, Macaca fascicularis; conditions: in vivo
[10] = Clearance in cynomolgus monkey at 0.1 mg/kg, iv or 1 mg/kg, po administered as cassette dose by LC-MS/MS analysis; type: ADME, organism-based, Macaca fascicularis; conditions: in vivo
[11] = AUC in cynomolgus monkey at 1 mg/kg, po administered as cassette dose by LC-MS/MS analysis; type: ADME, organism-based, Macaca fascicularis; conditions: in vivo
Renin [12] = target: T2, Renin (Rattus norvegicus, UniProt P08424)
T2 sequence (P08424 whole entry): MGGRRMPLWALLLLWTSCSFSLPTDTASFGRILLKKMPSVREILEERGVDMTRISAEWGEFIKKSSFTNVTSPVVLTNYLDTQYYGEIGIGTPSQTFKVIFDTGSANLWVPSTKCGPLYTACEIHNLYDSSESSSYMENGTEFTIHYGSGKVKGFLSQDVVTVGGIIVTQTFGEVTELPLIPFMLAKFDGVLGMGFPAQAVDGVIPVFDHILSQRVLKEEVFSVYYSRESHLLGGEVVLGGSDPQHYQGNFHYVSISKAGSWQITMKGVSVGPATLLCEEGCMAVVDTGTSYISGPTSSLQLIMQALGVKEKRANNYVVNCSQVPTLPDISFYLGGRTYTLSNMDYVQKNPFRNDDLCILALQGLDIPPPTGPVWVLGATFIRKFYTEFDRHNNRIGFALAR
Description: Inhibition of renin in rat plasma

[13] = Tmax in cynomolgus monkey at 0.1 mg/kg, iv or 1 mg/kg, po administered as cassette dose by LC-MS/MS analysis; type: ADME, organism-based, Macaca fascicularis; conditions: in vivo
Renin [14] = target: T3, Renin (Macaca mulatta, UniProt Q6DLW5)
T3 sequence (Q6DLW5 whole entry): T1 sequence (P00797 whole entry) with T68A, I214L, S235A, Q270P, R406H
Description: Inhibition of renin in monkey plasma

[15] = Oral bioavailability in cynomolgus monkey at 1 mg/kg administered as cassette dose by LC-MS/MS analysis; type: ADME, organism-based, Macaca fascicularis; conditions: in vivo
Cynomolgus monkey [16] = experiment: In vivo inhibition of plasma renin in po dosed cynomolgus monkey measured at 4 and 24 hrs post dose by radioimmunoassay; type: functional, organism-based; conditions: Macaca fascicularis
[17] = Cmax in cynomolgus monkey at 0.1 mg/kg, iv or 1 mg/kg, po administered as cassette dose by LC-MS/MS analysis; type: ADME, organism-based, Macaca fascicularis; conditions: in vivo
Cynomolgus monkey [18] = conditions: Macaca fascicularis; Plasma; 5 to 15 mg/kg
Cynomolgus monkey [19] = conditions: Macaca fascicularis; Plasma; 15 mg/kg
Rattus norvegicus [20] = species on record: Rattus norvegicus; conditions: in vivo, po, 1 mg/kg

SMILES | IC50 (Renin [1]) | clearance (in vivo [2]) | IC50 (Renin [3]) | AUC (in vivo [4]) | logD (physchem) | AUC (in vivo [5]) | bioavailability (in vivo [6]) | IC50 (Renin [7]) | Papp at 3 h (in vitro) | other results
COCCCNc1nc(C(C)(C)C)ncc1C(=O)N(CC(C)C)[C@@H]1CNC[C@H](C(=O)N2CCOCC2)C1 | – | 121 mL/min/kg | – | 14.1 ng·h/mL | 2.99 | – | < 1% | – | 39 ×10⁻⁶ cm/s | Stability (Rattus norvegicus [8]): Stable
COCCCCc1c(C(=O)N(CC(C)C)[C@@H]2CNC[C@H](C(=O)N3CCOCC3)C2)nc2n1CCCC2 | 3.3 nM | – | 2.2 nM | – | – | – | – | 2.7 nM | – | –
COCCCOc1nc(C(C)(C)C)ncc1C(=O)N(CC(C)C)[C@@H]1CNC[C@H](C(=O)N2CCOCC2)C1 | – | – | > 100 nM | – | 2.81 | – | – | > 100 nM | 27.2 ×10⁻⁶ cm/s | –
COCCCCn1nc(-c2ccccc2)cc1C(=O)N(CC(C)C)[C@@H]1CNC[C@H](C(=O)N2CCOCC2)C1 | – | – | > 100 nM | – | 2.68 | – | – | > 100 nM | – | –
COCCCCn1c(C(=O)N(CC(C)C)[C@@H]2CNC[C@H](C(=O)N3CCOCC3)C2)nc2ccccc21 | – | 25.9 mL/min/kg | – | 68 ng·h/mL | 2.11 | 92.2 ng·h/mL | 14% | – | 34.5 ×10⁻⁶ cm/s | AUC [9]: 128 ng·h/mL; clearance [10]: 14.2 mL/min/kg; AUC [11]: 323 ng·h/mL; IC50 (Renin [12]): 310 nM; Tmax [13]: 1.67 h; IC50 (Renin [14]): 1.5 nM; bioavailability [15]: 25%; inhibition (Cynomolgus monkey [16]): Dose-dependent effect; Cmax [17]: 29.1 ng/mL
COCCCOc1cc(C[C@@H](C[C@H](N)[C@@H](O)C[C@H](C(=O)NCC(C)(C)C(N)=O)C(C)C)C(C)C)ccc1OC | – | – | – | – | – | – | – | – | – | AUC [9]: 501 ng·h/mL; clearance [10]: 3.37 mL/min/kg; AUC [11]: 25.9 ng·h/mL; Tmax [13]: 3.33 h; bioavailability [15]: 0.6%; inhibition (Cynomolgus monkey [18]): Active; Cmax [17]: 3.5 ng/mL; inhibition (Cynomolgus monkey [19]): Active
CCCCCCc1nc(C(C)(C)C)ncc1C(=O)N(CC(C)C)[C@@H]1CNC[C@H](C(=O)N2CCOCC2)C1 | – | – | – | 42 ng·h/mL | 4.77 | – | – | – | 43.5 ×10⁻⁶ cm/s | AUC (Rattus norvegicus [20]): 20.9 ng·h/mL
COCCCCn1c(C(=O)N(CC(C)C)[C@@H]2CNC[C@H](C(=O)N3CCOCC3)C2)cnc1-c1ccccc1 | 2.8 nM | 96.7 mL/min/kg | 4.4 nM | 17.6 ng·h/mL | 2.03 | – | < 1% | 3.3 nM | 7.2 ×10⁻⁶ cm/s | –
COCCCCn1nc(C(C)(C)C)cc1C(=O)N(CC(C)C)[C@@H]1CNC[C@H](C(=O)N2CCOCC2)C1 | – | – | 2 nM | – | 2.73 | – | – | 3.6 nM | – | –
CCn1c(C(=O)N(CC(C)C)[C@@H]2CNC[C@H](CO)C2)nc2ccccc21 | > 10 nM | – | 16 nM | – | 1.73 | – | – | 21 nM | 5.5 ×10⁻⁶ cm/s | –
COCCCCn1c(C(=O)N(CC(C)C)[C@@H]2CNC[C@H](C(=O)N3CCOCC3)C2)cnc1C(C)(C)C | – | – | 48 nM | – | 2.12 | – | – | 35 nM | – | –

More lines, in order of falling IC50 (Renin [3]), values ahead:

IC50 (Renin [1]) | clearance (in vivo [2]) | IC50 (Renin [3]) | AUC (in vivo [4]) | logD (physchem) | AUC (in vivo [5]) | bioavailability (in vivo [6]) | IC50 (Renin [7]) | Papp at 3 h (in vitro) | SMILES | other results
1.1 nM | 39 mL/min/kg | 1.6 nM | 43.5 ng·h/mL | 1.54 | 9.5 ng·h/mL | 2.2% | 2.1 nM | 6.3 ×10⁻⁶ cm/s | COCCCCc1c(C(=O)N(CC(C)C)[C@@H]2CNC[C@H](C(=O)N3CCOCC3)C2)nc2ccccn12 | –
1.2 nM | 112 mL/min/kg | 1.4 nM | 15.3 ng·h/mL | 1.79 | – | < 1% | 1.8 nM | 11.6 ×10⁻⁶ cm/s | COCCCCn1c(C(=O)N(CC(C)C)[C@@H]2CNC[C@H](C(=O)N3CCOCC3)C2)nnc1-c1ccccc1 | –
1.3 nM | 80.4 mL/min/kg | 1.1 nM | 20.8 ng·h/mL | 1.78 | 0.7 ng·h/mL | 0.3% | 1.2 nM | 7.8 ×10⁻⁶ cm/s | COCCCCc1c(C(=O)N(CC(C)C)[C@@H]2CNC[C@H](C(=O)N3CCOCC3)C2)cnn1-c1ccccc1 | –
0.4 nM | 92.4 mL/min/kg | 1 nM | 18.4 ng·h/mL | 1.94 | 3.5 ng·h/mL | 1.9% | 0.65 nM | 36.9 ×10⁻⁶ cm/s | COCCCCc1c(C(=O)N(CC(C)C)[C@@H]2CNC[C@H](C(=O)N3CCOCC3)C2)nnn1-c1ccccc1 | –
9.1 nM | 33 mL/min/kg | 0.9 nM | 52.1 ng·h/mL | 2 | 59.7 ng·h/mL | 12% | 1.6 nM | 32.4 ×10⁻⁶ cm/s | COCCCCn1c(C(=O)N(CC(C)C)[C@H]2CCCNC2)nc2ccccc21 | –
1.2 nM | 127 mL/min/kg | 0.83 nM | 13.3 ng·h/mL | 1.84 | – | < 1% | 1.1 nM | 7.8 ×10⁻⁶ cm/s | COCCCCc1c(C(=O)N(CC(C)C)[C@@H]2CNC[C@H](C(=O)N3CCOCC3)C2)ncn1-c1ccccc1 | –
4 nM | 34.2 mL/min/kg | 0.76 nM | 50.7 ng·h/mL | 1.74 | 41.7 ng·h/mL | 8.2% | 0.59 nM | 6 ×10⁻⁶ cm/s | CC(C)CN(C(=O)c1nc2ccccc2[nH]1)[C@@H]1CNC[C@H](C(=O)N2CCOCC2)C1 | –
2.6 nM | – | 0.72 nM | – | 1.98 | – | – | 1.5 nM | 20.2 ×10⁻⁶ cm/s | COCCCCn1c(C(=O)N(CC(C)C)[C@@H]2CNC[C@H](C(C)(C)O)C2)nc2ccccc21 | –
1.3 nM | 38.5 mL/min/kg | 0.66 nM | 43.4 ng·h/mL | 1.79 | 58.9 ng·h/mL | 14% | 0.89 nM | 24.2 ×10⁻⁶ cm/s | CCn1c(C(=O)N(CC(C)C)[C@@H]2CNC[C@H](C(=O)N3CCOCC3)C2)nc2ccccc21 | –
2.9 nM | 38.9 mL/min/kg | 0.63 nM | 43.9 ng·h/mL | 1.71 | 74.2 ng·h/mL | 17% | 0.66 nM | 27.4 ×10⁻⁶ cm/s | CC(C)CN(C(=O)c1nc2ccccc2n1C)[C@@H]1CNC[C@H](C(=O)N2CCOCC2)C1 | –
1.5 nM | 15.5 mL/min/kg | 0.28 nM | 108 ng·h/mL | 1.77 | 103 ng·h/mL | 9.6% | 0.32 nM | 8.2 ×10⁻⁶ cm/s | COCCCCn1c(C(=O)N(CC(C)C)[C@@H]2CNC[C@H](CO)C2)nc2ccccc21 | –
5.4 nM | 62.4 mL/min/kg | 0.2 nM | 27.3 ng·h/mL | 4.45 | – | < 1% | 0.64 nM | 25.2 ×10⁻⁶ cm/s | CCCCCNc1nc(C(C)(C)C)ncc1C(=O)N(CC(C)C)[C@@H]1CNC[C@H](C(=O)N2CCOCC2)C1 | –
3.4 nM | 49.5 mL/min/kg | 0.16 nM | 34.6 ng·h/mL | 3.08 | 18.5 ng·h/mL | 5.4% | 1.4 nM | 21.7 ×10⁻⁶ cm/s | COCCCCn1c(C(=O)N(CC(C)C)[C@@H]2CNC[C@H](C(=O)N3CCOCC3)C2)ccc1-c1ccccc1 | –
